Results on eight compounds are retold here after US11999716B2, “WDR5 inhibitors and modulators” (priority 2018, dated 2024).

Assay [1] has as its target WDR5 (Homo sapiens, UniProt P61964). Briefly: biochemical. The class given is binding.
For assay [2], the system named is MV4:11 human cancer cell lines. Briefly: Cellular viability / anti-proliferative activity, CellTiter-Glo, 5 day protocol. Format: cell-based. The following applies: Homo sapiens, MV4-11, 120 h, read-out: GI50 on cellular proliferation of MV4:11 human cancer cell lines. Put shortly:
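Cells seeded at 200 per well (7200 cells/mL) with compound in 2-fold serial dilutions from 30 μM top (22 points), 0.3% DMSO final. Viability read by CellTiter-Glo luminescence after 5 days; GI50 from sigmoidal dose-response fit, mean of at least two replicates.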
On the technique in general: Cellular ATP, detected with luciferase, serves as a proxy for viable cell number.

The mark [3] stands for this setting: […], 10mer-Thr-FAM probe 150 nM, Tb-anti-HIS 1 nM, 60 min, room temperature, read-out: Ki for Inhibition of WDR5 by TR-FRET assay.
Where [4] appears, read: MV4:11 cells, 5 day incubation, CellTiter-Glo, mean of minimum two replicates.

Molecules are shown by their SMILES. pKi: −log10 of the molar value. Like-named read-outs stand apart in the source and are kept apart here. A value given as a limit tells only on which side of the number the result lay.

In the case of `CCn1cc(-c2cc(Cn3ccsc3=N)cc3c2CCN(Cc2cc(C)nn2C)C3=O)c(C(F)(F)F)n1` [Example 106, 2-((1,3-Dimethyl-1H-pyrazol-5-yl)methyl)-5-(1-ethyl-3-(trifluoromethyl)-1H-pyrazol-4-yl)-7-((2-iminothiazol-3(2H)-yl)methyl)-3,4-dihydroisoquinolin-1(2H)-one], the pKi (as a rule, −log10 of the Ki, conventionally taken in molar units) in assay [1] (Ki for Inhibition of WDR5 by TR-FRET assay) is over 10.30. In assay [2], the GI50 amounted to 182 nM.
`COc1cc(CN2CCc3c(cc(CN4CCCC4=N)cc3-c3cccnc3C(F)(F)F)C2=O)cc(OC)c1` [Example 107, 2-(3,5-Dimethoxybenzyl)-7-((2-iminopyrrolidin-1-yl)methyl)-5-(2-(trifluoromethyl)pyridin-3-yl)-3,4-dihydroisoquinolin-1(2H)-one]: in assay [1] (setting [3]), the pKi is 9.96.
In the case of `COc1cc(CN2CCc3c(cc(Cn4ccn(C)c4=N)cc3-c3ccc(F)cc3C)C2=O)cc(OC)c1` [Example 29, 2-(3,5-Dimethoxybenzyl)-5-(4-fluoro-2-methylphenyl)-7-((2-imino-3-methyl-2,3-dihydro-1H-imidazol-1-yl)methyl)-3,4-dihydroisoquinolin-1(2H)-one], the pKi in assay [1] (setting [3]) is over 10.30. Also, the GI50 in assay [2] turned out to be 63 nM.
As to `Cc1nccn1Cc1cc2c(c(-c3cn(C)nc3C(F)(F)F)c1)CCN(Cc1ccc3c(c1)OCO3)C2=O` [Example 170, 2-(Benzo[d][1,3]dioxol-5-ylmethyl)-7-((2-methyl-1H-imidazol-1-yl)methyl)-5-(1-methyl-3-(trifluoromethyl)-1H-pyrazol-4-yl)-3,4-dihydroisoquinolin-1(2H)-one], the GI50 in assay [2] (setting [4]) came to 835 nM.
Regarding `COc1ccnc([C@H](C)N2CCc3c(cc(Cn4ccn(C)c4=N)cc3-c3cn(C)nc3C(F)(F)F)C2=O)c1` [Example 71, (S)-7-((2-Imino-3-methyl-2,3-dihydro-1H-imidazol-1-yl)methyl)-2-(1-(4-methoxypyridin-2-yl)ethyl)-5-(1-methyl-3-(trifluoromethyl)-1H-pyrazol-4-yl)-3,4-dihydroisoquinolin-1(2H)-one], the GI50 in assay [2] (setting [4]) was under 50 nM.
For the compound `CCn1cc(-c2cc(Cc3cnc[nH]3)cc3c2CCN([C@@H](C)c2cc(OC)ccn2)C3=O)c(C(F)(F)F)n1` [Example 250, (S)-7-((1H-Imidazol-5-yl)methyl)-5-(1-ethyl-3-(trifluoromethyl)-1H-pyrazol-4-yl)-2-(1-(4-methoxypyridin-2-yl)ethyl)-3,4-dihydroisoquinolin-1(2H)-one], the GI50 in assay [2] was under 50 nM.
As for `CCn1cc(-c2cc(Cc3cncn3C)cc3c2CCN([C@@H](C)c2cc(OC)ccn2)C3=O)c(C(F)(F)F)n1` [Example 257, (S)-5-(1-Ethyl-3-(trifluoromethyl)-1H-pyrazol-4-yl)-2-(1-(4-methoxypyridin-2-yl)ethyl)-7-((1-methyl-1H-imidazol-5-yl)methyl)-3,4-dihydroisoquinolin-1(2H)-one], in assay [2], the GI50 was under 50 nM.
For the compound `CCn1cc(-c2cc(Cn3ccn(C)c3=N)cc3c2CCN([C@@H](C)c2cc(OC)ccn2)C3=O)c(C(F)(F)F)n1` [Example 66, (S)-5-(1-Ethyl-3-(trifluoromethyl)-1H-pyrazol-4-yl)-7-((2-imino-3-methyl-2,3-dihydro-1H-imidazol-1-yl)methyl)-2-(1-(4-methoxypyridin-2-yl)ethyl)-3,4-dihydroisoquinolin-1(2H)-one], the GI50 in assay [2] (setting [4]) was under 50 nM.
